What was measured:
Type in all cases: in vitro ADME
P4503A4 = target: T1, P4503A4 (Homo sapiens, UniProt P08684); experiment: Modulation of P4503A4 activity (testosterone β-hydroxylation); details: for mechanism of P4503A4 inhibition: testosterone 0.02-0.2 mM, inhibitor 0-0.01 mM, nonlinear regression; for decrease in activity of P4503A4: testosterone β-hydroxylation, all concentrations (0.01, 0.02 and 0.05 mM), 30 min
T1 construct: purchased Cypex, Dundee, Scotland, UK (through Tebu-Bio); host or cells: Escherichia coli (Bactosomes)
T1 sequence (P08684 whole entry): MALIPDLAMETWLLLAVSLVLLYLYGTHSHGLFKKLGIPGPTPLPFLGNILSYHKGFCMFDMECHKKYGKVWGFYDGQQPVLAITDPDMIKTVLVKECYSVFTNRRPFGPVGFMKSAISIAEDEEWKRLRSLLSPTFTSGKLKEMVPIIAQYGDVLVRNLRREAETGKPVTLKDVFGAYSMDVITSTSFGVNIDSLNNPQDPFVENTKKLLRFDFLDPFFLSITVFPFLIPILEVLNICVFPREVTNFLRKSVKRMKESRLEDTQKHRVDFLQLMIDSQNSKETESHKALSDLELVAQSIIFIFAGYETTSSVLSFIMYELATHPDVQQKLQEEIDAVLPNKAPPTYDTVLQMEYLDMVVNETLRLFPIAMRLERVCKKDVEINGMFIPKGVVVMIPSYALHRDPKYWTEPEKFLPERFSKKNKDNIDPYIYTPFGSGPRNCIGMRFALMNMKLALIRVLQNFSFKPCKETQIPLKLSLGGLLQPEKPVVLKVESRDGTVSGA
Experimental: Isoenzyme activity was studied by the rate measurement of β-hydroxylation of testosterone (specific substrate for P4503A4) and of glucuronidation of specific substrates, namely, SN-38 (UGT1A1), EPI (UGT2B7),) and TFK (UGT2B15). All substrate and drug solutions were prepared as 10 mM stock solutions in DMSO and were diluted in […] (pH 7.4). The mixture containing isoenzymes P4503A4/UGT (0.5 mg/mL), probe substrate (0.1 mM), cofactor 2 mM NADPH/5 mM UDPGA and the increasing concentrations of tested UA (0, 0.01, 0.02 and 0.05 mM) was incubated in the reaction buffer containing (i) for P4503A4 0.1 M HEPES, 88 mM MgCl2 and (ii) for UGT 0.1 M HEPES, 88 mM MgCl2, 25 μg/mL alamethicin at 37 °C for 30 min and were terminated by adding 8.75 µL of 0.1 M HCl. The samples were placed in ice for 10 min and centrifuged (10 min, 13,400 rpm). Supernatant fractions were analyzed by HPLC. For more accurate investigation of P4503A4 inhibition by C-2045 and C-2053 the β-hydroxylation rate was measured at various concentrations of testosterone: 0.02, 0.05, 0.1 and 0.2 mM. The inhibitor (UA) concentrations were 0, 0.001, 0.005 and 0.01 mM, whereas the incubation time 30 min and concentration of P4503A4 (0.5 mg/mL).

UGT2B7 = target: T2, UGT2B7 (Homo sapiens, UniProt P16662); experiment: Glucuronidation with recombinant UGT2B7; parameters: key: −: the lack of UGT activity; +: the significant UGT activity; details: 0.05 mM compound, 1 mg/mL UGT, 5 mM UDPGA
T2 construct: purchased Corning, NY, USA (through DIAG-MED, Poland); host or cells: baculovirus-insect cells (Supersomes)
T2 sequence (P16662 24-529): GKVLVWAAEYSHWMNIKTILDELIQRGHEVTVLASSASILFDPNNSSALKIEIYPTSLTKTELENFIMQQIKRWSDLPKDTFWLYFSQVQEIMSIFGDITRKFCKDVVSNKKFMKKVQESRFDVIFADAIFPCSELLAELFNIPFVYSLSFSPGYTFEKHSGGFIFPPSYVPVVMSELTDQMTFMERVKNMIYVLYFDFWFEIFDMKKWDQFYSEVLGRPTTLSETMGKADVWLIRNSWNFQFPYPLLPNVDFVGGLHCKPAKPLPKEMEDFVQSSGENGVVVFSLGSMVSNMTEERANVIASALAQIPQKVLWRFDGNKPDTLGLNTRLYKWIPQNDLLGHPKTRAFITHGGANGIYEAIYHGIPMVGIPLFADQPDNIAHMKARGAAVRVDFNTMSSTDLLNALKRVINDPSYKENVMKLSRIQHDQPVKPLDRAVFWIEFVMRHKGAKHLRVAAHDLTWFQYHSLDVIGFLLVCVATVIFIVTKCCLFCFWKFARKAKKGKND
Experimental: (§1) Recombinant UGT isoform protein (1 mg/mL) was assayed for activity toward tested UAs as follows. The proteins were incubated in a buffer containing 0.1 M HEPES (pH 7.4), 8 mM MgCl2 and alamethicin (25 μg/mL) with either 0.05 mM substrate in total volume 70 µL (alamethicin was added to permeabilize the membrane). Substrates were also in buffer HEPES, pH 7.4. Reactions were started by the addition of UDPGA (5 mM) and were incubated for specified time at 37 °C. The reactions were stopped by the addition of 8.75 µL of 1 M HCl, followed by centrifugation at 13400 rpm for 10 min to pellet the denatured protein. The supernatant fractions were used for HPLC analysis. Control reactions omitting substrate were run with each assay. All incubations were performed in two repetitions.

UGT 1A10 = target: T3, UGT 1A10 (Homo sapiens, UniProt Q9HAW8); experiment: Glucuronidation with recombinant UGT1A10; parameters: key to Glucuronidation potency UGT 1A10: −: the lack of UGT activity; +: the significant UGT activity; details: 0.05 mM compound; for Glucuronidation potency UGT 1A10: 1 mg/mL UGT, 5 mM UDPGA
T3 construct: His tag; purchased Corning, NY, USA (through DIAG-MED, Poland); host or cells: baculovirus-insect cells (Supersomes); Results say Sf9 cells
T3 sequence (Q9HAW8 26-530): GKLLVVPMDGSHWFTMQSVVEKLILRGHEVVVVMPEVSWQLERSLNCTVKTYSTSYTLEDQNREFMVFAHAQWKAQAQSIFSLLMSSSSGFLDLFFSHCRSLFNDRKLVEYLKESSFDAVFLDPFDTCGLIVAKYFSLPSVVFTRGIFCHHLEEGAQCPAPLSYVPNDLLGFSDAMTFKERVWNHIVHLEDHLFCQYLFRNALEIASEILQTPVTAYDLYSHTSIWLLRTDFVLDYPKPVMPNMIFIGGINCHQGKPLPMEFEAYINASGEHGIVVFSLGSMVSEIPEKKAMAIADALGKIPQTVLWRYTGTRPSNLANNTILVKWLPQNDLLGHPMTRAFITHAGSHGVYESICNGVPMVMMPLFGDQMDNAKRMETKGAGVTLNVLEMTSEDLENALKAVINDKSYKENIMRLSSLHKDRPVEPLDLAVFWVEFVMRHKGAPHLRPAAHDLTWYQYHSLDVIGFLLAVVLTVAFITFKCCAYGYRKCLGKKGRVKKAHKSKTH
Experimental: as §1

UGT 1A6 = target: T4, UGT 1A6 (Homo sapiens, UniProt P19224); experiment: Glucuronidation with recombinant UGT1A6; parameters: key: −: the lack of UGT activity; +: the significant UGT activity; details: 0.05 mM compound, 1 mg/mL UGT, 5 mM UDPGA
T4 construct: His tag; purchased Corning, NY, USA (through DIAG-MED, Poland); host or cells: baculovirus-insect cells (Supersomes); Results say Sf9 cells
T4 sequence (P19224 27-532): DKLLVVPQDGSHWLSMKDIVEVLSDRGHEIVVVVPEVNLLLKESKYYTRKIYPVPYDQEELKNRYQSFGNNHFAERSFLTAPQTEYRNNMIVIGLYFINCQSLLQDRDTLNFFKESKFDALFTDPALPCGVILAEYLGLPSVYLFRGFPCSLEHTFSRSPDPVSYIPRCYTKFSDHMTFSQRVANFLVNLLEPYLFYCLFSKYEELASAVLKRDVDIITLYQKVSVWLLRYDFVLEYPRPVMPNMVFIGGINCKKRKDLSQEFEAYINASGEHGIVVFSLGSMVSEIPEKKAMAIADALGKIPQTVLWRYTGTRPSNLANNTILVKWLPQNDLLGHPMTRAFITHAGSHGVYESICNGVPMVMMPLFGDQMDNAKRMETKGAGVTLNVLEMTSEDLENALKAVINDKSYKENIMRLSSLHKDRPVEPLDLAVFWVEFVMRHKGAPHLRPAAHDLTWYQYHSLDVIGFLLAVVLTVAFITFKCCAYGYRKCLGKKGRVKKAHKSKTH
Experimental: as §1

mechanism of P4503A4 inhibition (P4503A4)	decrease in activity of P4503A4 (P4503A4)	Glucuronidation potency UGT 2B7 (UGT2B7)	rate of metabolism (glucuronidation) with UGT1A10 (UGT 1A10; 1 mg/mL UGT1A10, 5 mM UDPGA, 120 min)	Glucuronidation potency UGT 1A10 (UGT 1A10)	Glucuronidation potency UGT 1A6 (UGT 1A6)	SMILES
non-competitive	over 90%	−	18%	+		Cc1ccc([N+](=O)[O-])c2c(NCCCN(C)CCCNc3ccc4ncn5c6ccc(O)cc6c(=O)c3c45)c3ccccc3nc12 [C-2045]
		−		−	−	CN(CCCNc1c2ccccc2nc2cccc([N+](=O)[O-])c12)CCCNc1ccc2ncn3c4ccccc4c(=O)c1c23 [C-2028]
competitive	above 50%	−		−	−	Cc1ccc([N+](=O)[O-])c2c(NCCCN(C)CCCNc3ccc4ncn5c6ccccc6c(=O)c3c45)c3ccccc3nc12 [C-2053]

Source: publication PMC8066102, “Metabolic Profiles of New Unsymmetrical Bisacridine Antitumor Agents in Electrochemical and Enzymatic Noncellular Systems and in Tumor Cells” (Pharmaceuticals, 2021)
